In article PMC10753746 (ACS Omega, 2023):

Tests used:
[1] = molecular target: LPA2 (Homo sapiens, UniProt Q9HBW0); assay: TGFα shedding assay, LPA2; type: cell-based; settings: for EC50: EC50, HEK293 cells, human LPA2 + AP-TGFα + Gαq/s, 1 h 37°C; for <RIA>: relative to 18:1-LPA (1) = 1 of the same table
[2] = molecular target: T1, LPA4 (Homo sapiens, UniProt Q99677)
[3] = molecular target: LPA1 (Homo sapiens, UniProt Q92633)
[4] = molecular target: LPA5 (Homo sapiens, UniProt Q9H1C0)
[5] = molecular target: T1, LPA4; assay: cell-based

T1 sequence (Q99677 whole entry): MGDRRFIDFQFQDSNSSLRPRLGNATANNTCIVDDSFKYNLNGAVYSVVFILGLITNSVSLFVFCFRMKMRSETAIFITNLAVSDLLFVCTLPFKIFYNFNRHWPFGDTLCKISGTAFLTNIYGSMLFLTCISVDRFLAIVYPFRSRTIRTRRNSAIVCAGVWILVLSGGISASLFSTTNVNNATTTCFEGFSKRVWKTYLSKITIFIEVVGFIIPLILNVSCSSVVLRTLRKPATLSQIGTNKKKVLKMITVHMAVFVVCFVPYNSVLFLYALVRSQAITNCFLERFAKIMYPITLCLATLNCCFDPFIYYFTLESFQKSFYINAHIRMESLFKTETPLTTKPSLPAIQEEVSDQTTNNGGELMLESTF
Chain of LPA2 (Q9HBW0 whole entry): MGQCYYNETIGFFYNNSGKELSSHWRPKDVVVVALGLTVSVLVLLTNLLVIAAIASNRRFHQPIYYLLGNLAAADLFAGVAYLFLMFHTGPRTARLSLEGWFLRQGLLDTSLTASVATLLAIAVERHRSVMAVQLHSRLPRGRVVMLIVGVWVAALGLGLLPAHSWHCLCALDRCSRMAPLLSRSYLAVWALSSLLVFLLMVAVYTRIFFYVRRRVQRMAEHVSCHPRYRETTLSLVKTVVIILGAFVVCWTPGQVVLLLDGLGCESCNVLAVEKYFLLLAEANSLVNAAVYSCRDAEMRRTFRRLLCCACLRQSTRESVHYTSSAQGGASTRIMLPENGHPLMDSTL
Chain of LPA1 (Q92633 whole entry): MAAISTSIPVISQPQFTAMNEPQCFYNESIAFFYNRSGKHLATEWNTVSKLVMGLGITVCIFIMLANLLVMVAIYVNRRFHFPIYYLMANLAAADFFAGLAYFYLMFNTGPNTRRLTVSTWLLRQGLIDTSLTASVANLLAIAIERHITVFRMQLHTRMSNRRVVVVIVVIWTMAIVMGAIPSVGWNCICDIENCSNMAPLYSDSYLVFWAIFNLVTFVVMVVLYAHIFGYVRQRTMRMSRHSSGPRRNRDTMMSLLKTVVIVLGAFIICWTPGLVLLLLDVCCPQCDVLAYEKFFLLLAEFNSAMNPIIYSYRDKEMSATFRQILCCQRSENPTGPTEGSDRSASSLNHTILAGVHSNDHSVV
Chain of LPA5 (Q9H1C0 whole entry): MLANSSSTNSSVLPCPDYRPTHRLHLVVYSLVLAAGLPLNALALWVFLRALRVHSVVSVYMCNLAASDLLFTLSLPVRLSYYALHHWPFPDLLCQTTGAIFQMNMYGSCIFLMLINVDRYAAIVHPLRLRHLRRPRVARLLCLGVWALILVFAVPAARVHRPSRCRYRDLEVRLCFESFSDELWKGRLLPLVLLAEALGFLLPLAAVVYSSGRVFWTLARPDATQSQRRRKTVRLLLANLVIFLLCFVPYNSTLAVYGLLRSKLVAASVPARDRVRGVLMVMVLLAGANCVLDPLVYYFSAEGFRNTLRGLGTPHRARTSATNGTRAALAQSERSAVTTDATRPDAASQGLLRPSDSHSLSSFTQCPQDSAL

Row | Compound | Emax [1] | EC50 [1] | Emax [2] | other results
1 | CCCCCCCCCCCCCCCCO[C@@H]1CCCO[C@H]1COP(O)(O)=S [MZN-018] | 16% | 1000 nM | 6.4% | <RIA> ([1]; LPA2): <0.012>
2 | CCCCCCCCCCCCCCCC(=O)O[C@@H]1CCCO[C@H]1COP(O)(O)=S [MZN-021] | – | – | 21% | agonistic activity in words ([1]; LPA2): no activity
3 | CCCCCCc1ccc(CCCCCCC(=O)O[C@@H]2CCCO[C@H]2COP(O)(O)=S)cc1 [MZN-025] | – | – | 23% | –
4 | CCCCCCc1cccc(CCCCCCC(=O)O[C@@H]2CCCO[C@H]2COP(O)(O)=S)c1 [MZN-024] | – | – | 22% | –
5 | CCCCCCCC/C=C/CCCCCCCC(=O)O[C@@H]1CCCO[C@H]1COP(O)(O)=S [MZN-022] | – | – | 23% | Emax [3]: 16%; Emax [4]: 51%
6 | CCCCCCCC/C=C\CCCCCCCC(=O)N1CCC[C@H]1COP(O)(O)=S [MZN-019] | 42% | 1600 nM | 16% | <RIA> ([1]; LPA2): <0.022>; EC50 [5]: 8.32 nM
7 | CCCCCCc1ccccc1CCCCCCC(=O)O[C@@H]1CCCO[C@H]1COP(O)(O)=S [MZN-023] | – | – | 18% | –
8 | CCCCCCCCCCCCCCCC(=O)N1CCC[C@H]1COP(O)(O)=S [MZN-020] | 44% | 630 nM | 19% | –
